Measurements published in patent US9108957B2 (MITSUBISHI TANABE PHARMA CORPORATION, priority 2009, dated 2015).

What follows are molecules tested against human recombinant TPK1 (Homo sapiens, UniProt P49841) (assay: Inhibitory activity against P-GS1 phosphorylation by TPK1 (Kinase Glo luminescence)). Conditions: 7.5 μM P-GS1, 10 μM ATP, 25° C. for 16 hours, Kinase Glo Reagent luminescent signal.
Format: biochemical
Description: Inhibitory Activity of the Medicament of the Present Invention Against P-GS1 Phosphorylation by Bovine Cerebral TPK1
A mixture containing 100 mM HEPES-sodium hydroxide (pH 7.2), 1 mM magnesium acetate, 1 mM EGTA, 1 mM dithiothreitol (DTT), 0.02% Tween 20, 7.5 μM P-GS1, 10 μM ATP, human recombinant TPK1 and a compound shown in Table (a final mixture contained 1% DMSO deriving from a solution of a test compound prepared in the presence of 10% DMSO) was used as a reaction system. The phosphorylation was started by adding ATP, and the reaction was conducted at 25° C. for 16 hours. Then equal volume of Kinase Glo Reagent (Promega) was added to the mixture and luminescent signal from the mixture was measured. IC50 for each compound was calculated by setting the data of mixture without enzyme as 0% activity and that without compound as 100% activity.

Sequence of human recombinant TPK1 (P49841 whole entry): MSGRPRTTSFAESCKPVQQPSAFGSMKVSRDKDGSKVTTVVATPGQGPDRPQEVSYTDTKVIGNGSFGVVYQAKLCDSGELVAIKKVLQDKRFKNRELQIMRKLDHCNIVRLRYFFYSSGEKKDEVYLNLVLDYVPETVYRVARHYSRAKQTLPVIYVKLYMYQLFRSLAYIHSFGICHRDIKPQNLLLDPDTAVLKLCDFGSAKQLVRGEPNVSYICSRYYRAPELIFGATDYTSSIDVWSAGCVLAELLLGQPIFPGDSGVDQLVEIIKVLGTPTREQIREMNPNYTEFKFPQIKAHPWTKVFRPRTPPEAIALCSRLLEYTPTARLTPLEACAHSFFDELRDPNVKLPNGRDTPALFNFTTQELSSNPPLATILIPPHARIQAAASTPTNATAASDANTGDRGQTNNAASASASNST

| Structure (SMILES) | IC50 [nM] |
| --- | --- |
| Cn1c(N2CCCO[C@H](c3ccc(Br)cc3)C2)nc(-c2ccncc2F)cc1=O [Compound A044, (R)-2-[2-(4-bromophenyl)-1,4-oxazepan-4-yl]-6-(3-fluoropyridin-4-yl)-3-methylpyrimidin-4(3H)-one] | 52.4 |
| Cn1c(N2CCCN(c3ccc(F)cc3)CC2)nc(-c2ccncc2)cc1=O [Compound A005, 2-[4-(4-fluorophenyl)-1,4-diazepan-1-yl]-3-methyl-6-(pyridin-4-yl)pyrimidin-4(3H)-one] | 84.2 |
| Cc1noc(-c2ccc(C3CCN(c4nc(-c5ccncn5)cc(=O)n4C)CCO3)cc2)n1 (single isomer, unassigned; (-)) [Compound A121, (−)-2-[7-[4-(3-methyl-1,2,4-oxadiazol-5-yl)-phenyl]-1,4-oxazepan-4-yl]-3-methyl-6-(pyrimidin-4-yl)pyrimidin-4(3H)-one] | 83.4 |
| Cc1nc(-c2ccc([C@H]3CN(c4nc(-c5ccncc5)cc(=O)n4C)CCCO3)cc2)no1 [Compound A050, (S)-2-[2-[4-(5-methyl-[1,2,4]oxadiazol-3-yl)-phenyl]-1,4-oxazepan-4-yl]-3-methyl-6-(pyridin-4-yl)pyrimidin-4(3H)-one] | 77.4 |
| Cc1noc(-c2cccc([C@H]3CN(c4nc(-c5ccncc5)cc(=O)n4C)CCCO3)c2)n1 [Compound A056, (S)-2-[2-[3-(3-methyl-1,2,4-oxadiazol-5-yl)-phenyl]-1,4-oxazepan-4-yl]-3-methyl-6-(pyridin-4-yl)pyrimidin-4(3H)-one] | 169 |
| Cc1noc(-c2ccc([C@@H]3CN(c4nc(-c5ccncc5F)cc(=O)n4C)CCCO3)cc2)n1 [Compound A053, (R)-2-[2-[4-(3-methyl-1,2,4-oxadiazol-5-yl)-phenyl]-1,4-oxazepan-4-yl]-6-(3-fluoropyridin-4-yl)-3-methylpyrimidin-4(3H)-one] | 100 |
| COc1ccccc1C1CCN(c2nc(-c3ccncc3)cc(=O)n2C)CCO1 (stereo not shown) [Compound A115, 2-(7-(2-methoxyphenyl)-1,4-oxazepan-4-yl)-3-methyl-6-(pyridin-4-yl)pyrimidin-4(3H)-one] | 47.6 |
| COc1ccc(C2CCN(c3nc(-c4ccncn4)cc(=O)n3C)CCO2)cc1 (stereo not shown) [Compound A117, 2-(7-(4-methoxyphenyl)-1,4-oxazepan-4-yl)-3-methyl-6-(pyrimidin-4-yl)pyrimidin-4(3H)-one] | 54.7 |
| Cn1c(N2CCOC(c3ccc(Br)cc3)CC2)nc(-c2ccncc2F)cc1=O (single isomer, unassigned; (-)) [Compound A120, (−)-2-(7-(4-bromophenyl)-1,4-oxazepan-4-yl)-6-(3-fluoropyridin-4-yl)-3-methylpyrimidin-4(3H)-one] | 82.8 |
| Cn1c(N2CCCOCC2c2ccccc2)nc(-c2ccncn2)cc1=O (stereo in doubt) [Compound A065, (S)-3-methyl-2-(3-phenyl-1,4-oxazepan-4-yl)-6-(pyrimidin-4-yl)pyrimidin-4(3H)-one] | 97.5 |
| CC1COCCN(c2nc(-c3ccncn3)cc(=O)n2C)C1 (stereo not shown) [Compound A087, 2-(6-methyl-1,4-oxazepan-4-yl)-3-methyl-6-(pyrimidin-4-yl)pyrimidin-4(3H)-one] | 80.1 |
| CCC1CCOCCN1c1nc(-c2ccncn2)cc(=O)n1C (stereo not shown) [Compound A073, 3-methyl-2-(5-ethyl-1,4-oxazepan-4-yl)-6-(pyrimidin-4-yl)pyrimidin-4(3H)-one] | 195 |
| Cn1c(N2CCCO[C@H](c3ccc(C(N)=O)cc3)C2)nc(-c2ccncc2)cc1=O [Compound A062, (R)-2-[2-(4-aminocarbonylphenyl)-1,4-oxazepan-4-yl]-3-methyl-6-(pyridin-4-yl)pyrimidin-4(3H)-one] | 809 |
| Cn1c(N2CCCO[C@H](c3ccc(C#N)cc3)C2)nc(-c2ccncc2F)cc1=O [Compound A063, (R)-2-[2-(4-cyanophenyl)-1,4-oxazepan-4-yl]-6-(3-fluoropyridin-4-yl)-3-methylpyrimidin-4(3H)-one] | 826 |
| Cc1noc(-c2cccc([C@H]3CN(c4nc(-c5ccncn5)cc(=O)n4C)CCCO3)c2)n1 [Compound A045, (S)-2-[2-[3-(3-methyl-1,2,4-oxadiazol-5-yl)phenyl]-1,4-oxazepan-4-yl]-3-methyl-6-(pyrimidin-4-yl)pyrimidin-4(3H)-one] | 57.1 |
| Cn1c(N2CCOC(c3ccc(Br)cc3)CC2)nc(-c2ccncc2)cc1=O (single isomer, unassigned; (+)) [Compound A119, (+)-2-[7-(4-bromophenyl)-1,4-oxazepan-4-yl]-3-methyl-6-(pyridin-4-yl)pyrimidin-4(3H)-one] | 72.2 |

Stronger by IC50, values ahead:

| IC50 [nM] | Structure (SMILES) |
| --- | --- |
| 34.8 | CC1CN(c2nc(-c3ccncc3F)cc(=O)n2C)CCCO1 (stereo not shown) [Compound A041, 2-(2-methyl-1,4-oxazepan-4-yl)-6-(3-fluoropyridin-4-yl)-3-methylpyrimidin-4(3H)-one] |
| 6.8 | Cc1nc(-c2ccc(C3CCN(c4nc(-c5ccncc5F)cc(=O)n4C)CCO3)cc2)no1 (single isomer, unassigned; (+)) [Compound A091, (+)-2-[7-[4-(5-methyl-1,2,4-oxadiazol-3-yl)-phenyl]-1,4-oxazepan-4-yl]-6-(3-fluoropyridin-4-yl)-3-methylpyrimidin-4(3H)-one] |
| 11.1 | Cc1noc(-c2ccc([C@H]3CN(c4nc(-c5ccncc5F)cc(=O)n4C)CCCO3)cc2)n1 [Compound A019, (S)-2-[2-[4-(3-methyl-1,2,4-oxadiazol-5-yl)-phenyl]-1,4-oxazepan-4-yl]-6-(3-fluoropyridin-4-yl)-3-methylpyrimidin-4(3H)-one] |
| 19.8 | Cc1nc(-c2cccc([C@H]3CN(c4nc(-c5ccncn5)cc(=O)n4C)CCCO3)c2)no1 [Compound A030, (S)-2-[2-[3-(5-methyl-1,2,4-oxadiazol-3-yl)-phenyl]-1,4-oxazepan-4-yl]-3-methyl-6-(pyrimidin-4-yl)pyrimidin-4(3H)-one] |
| 30 | Cc1noc(-c2ccc(C3CCN(c4nc(-c5ccncc5F)cc(=O)n4C)CCO3)cc2)n1 (single isomer, unassigned; (-)) [Compound A113, (−)-2-[7-[4-(3-methyl-1,2,4-oxadiazol-5-yl)-phenyl]-1,4-oxazepan-4-yl]-6-(3-fluoropyridin-4-yl)-3-methylpyrimidin-4(3H)-one] |
| 20.2 | Cc1noc(-c2ccc([C@H]3CN(c4nc(-c5ccncn5)cc(=O)n4C)CCCO3)cc2)n1 [Compound A031, (S)-2-[2-[4-(3-methyl-1,2,4-oxadiazol-5-yl)-phenyl]-1,4-oxazepan-4-yl]-3-methyl-6-(pyrimidin-4-yl)pyrimidin-4(3H)-one] |
| 11.4 | Cn1c(N2CCCO[C@@H](c3cccc(C#N)c3)C2)nc(-c2ccncc2F)cc1=O [Compound A020] |
| 7.3 | Cn1c(N2CCCO[C@@H](c3ccc(C#N)cc3)C2)nc(-c2ccncc2F)cc1=O [Compound A013, (S)-2-[2-(4-cyanophenyl)-1,4-oxazepan-4-yl]-6-(3-fluoropyridin-4-yl)-3-methylpyrimidin-4(3H)-one] |
| 18.8 | Cn1c(N2CCCO[C@H](c3cccc(C(N)=O)c3)C2)nc(-c2ccncc2F)cc1=O [Compound A029] |
| 32.7 | Cn1c(N2CCCOC(c3ccccc3)C2)nc(-c2ccncc2)cc1=O (stereo not shown) [Compound A040, 2-(2-phenyl-1,4-oxazepan-4-yl)-3-methyl-6-(pyridin-4-yl)pyrimidin-4(3H)-one] |
| 34.7 | Cn1c(N2CCOC(c3ccc(Br)cc3)CC2)nc(-c2ccncc2F)cc1=O (single isomer, unassigned; (+)) [Compound A114, (+)-2-(7-(4-bromophenyl)-1,4-oxazepan-4-yl)-6-(3-fluoropyridin-4-yl)-3-methylpyrimidin-4(3H)-one] |
| 13 | Cn1c(N2CCCO[C@@H](c3cccc(Br)c3)C2)nc(-c2ccncc2)cc1=O [Compound A024, (S)-2-[2-(3-bromophenyl)-1,4-oxazepan-4-yl]-3-methyl-6-(pyridin-4-yl)pyrimidin-4(3H)-one] |
| 7.1 | Cn1c(N2CCOCC(c3ccc(-c4ncon4)cc3)C2)nc(-c2ccncc2F)cc1=O (stereo not shown) [Compound A078, 2-[6-[4-(1,2,4-oxadiazol-3-yl)-phenyl]-1,4-oxazepan-4-yl]-6-(3-fluoropyridin-4-yl)-3-methylpyrimidin-4(3H)-one] |
| 3.1 | Cn1c(N2CCOC[C@@H](c3ccc(C#N)cc3)C2)nc(-c2ccncn2)cc1=O [Compound A076, (S)-2-[6-(4-cyanoophenyl)-1,4-oxazepan-4-yl]-3-methyl-6-(pyrimidin-4-yl)pyrimidin-4(3H)-one] |
| 18.7 | Cn1c(N2CCOC(c3ccccc3F)CC2)nc(-c2ccncn2)cc1=O (stereo not shown) [Compound A105, 2-[7-(2-fluorophenyl)-1,4-oxazepan-4-yl]-3-methyl-6-(pyrimidin-4-yl)pyrimidin-4(3H)-one] |
| 12.7 | Cn1c(N2CCCO[C@H](c3cccc(Br)c3)C2)nc(-c2ccncc2)cc1=O [Compound A023, (R)-2-[2-(3-bromophenyl)-1,4-oxazepan-4-yl]-3-methyl-6-(pyridin-4-yl)pyrimidin-4(3H)-one] |
| 7.3 | Cn1c(N2CCCO[C@@H](c3cccc(Br)c3)C2)nc(-c2ccncn2)cc1=O [Compound A079, (S)-2-[2-(3-bromophenyl)-1,4-oxazepan-4-yl]-3-methyl-6-(pyrimidin-4-yl)pyrimidin-4(3H)-one] |
| 8.3 | Cn1c(N2CCCO[C@@H](c3ccc(F)cc3)C2)nc(-c2ccncn2)cc1=O [Compound A092, (S)-2-[2-(4-fluorophenyl)-1,4-oxazepan-4-yl]-3-methyl-6-(pyrimidin-4-yl)pyrimidin-4(3H)-one] |
